Test [1] has as its target T1, EP4 (Homo sapiens, UniProt P35408). Briefly: EP4 flipr. The test is classed as cell-based. From the text: (§1) US 2007/0129552, incorporated by reference herein, describes the methods used to obtain the in vitro data in the table below.
The target of test [2] is T1, EP4. Put plainly: EP4 KI (binding).
Excerpt: as §1

The target in another test is T2, hEP3A (Homo sapiens, UniProt P43115).
T2 sequence (P43115 1-390): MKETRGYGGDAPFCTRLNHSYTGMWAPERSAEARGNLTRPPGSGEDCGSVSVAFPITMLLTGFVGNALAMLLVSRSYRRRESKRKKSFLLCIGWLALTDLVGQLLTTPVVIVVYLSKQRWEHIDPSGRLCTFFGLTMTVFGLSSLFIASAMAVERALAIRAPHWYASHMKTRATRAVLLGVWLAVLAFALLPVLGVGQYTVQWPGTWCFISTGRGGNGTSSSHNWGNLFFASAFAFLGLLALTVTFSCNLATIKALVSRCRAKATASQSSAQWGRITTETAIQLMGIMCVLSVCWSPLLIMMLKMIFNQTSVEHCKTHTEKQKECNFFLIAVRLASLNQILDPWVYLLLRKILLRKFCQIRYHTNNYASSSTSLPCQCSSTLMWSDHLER
Put plainly: Other receptors: hEP3A EC50. The test is classed as cell-based.
Excerpt: as §1

The target in test [3] is T3, EP2 (Homo sapiens, UniProt P43116). Put plainly: EP2 flipr. The test is classed as cell-based.
T3 sequence (P43116 whole entry): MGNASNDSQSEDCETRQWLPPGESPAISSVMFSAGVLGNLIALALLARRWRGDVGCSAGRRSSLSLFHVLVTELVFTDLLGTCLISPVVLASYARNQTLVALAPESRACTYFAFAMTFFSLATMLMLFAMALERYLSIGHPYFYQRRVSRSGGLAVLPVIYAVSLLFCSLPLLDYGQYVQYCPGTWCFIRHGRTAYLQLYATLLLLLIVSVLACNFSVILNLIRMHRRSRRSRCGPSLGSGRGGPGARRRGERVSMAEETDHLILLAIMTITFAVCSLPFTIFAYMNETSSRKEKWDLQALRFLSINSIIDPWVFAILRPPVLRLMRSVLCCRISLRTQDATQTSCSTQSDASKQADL
Excerpt: as §1

In a further test the target is hFP (Homo sapiens, UniProt P43088). Put plainly: Other receptors: hFP EC50. The test is classed as cell-based.
hFP, sequence (P43088 whole entry): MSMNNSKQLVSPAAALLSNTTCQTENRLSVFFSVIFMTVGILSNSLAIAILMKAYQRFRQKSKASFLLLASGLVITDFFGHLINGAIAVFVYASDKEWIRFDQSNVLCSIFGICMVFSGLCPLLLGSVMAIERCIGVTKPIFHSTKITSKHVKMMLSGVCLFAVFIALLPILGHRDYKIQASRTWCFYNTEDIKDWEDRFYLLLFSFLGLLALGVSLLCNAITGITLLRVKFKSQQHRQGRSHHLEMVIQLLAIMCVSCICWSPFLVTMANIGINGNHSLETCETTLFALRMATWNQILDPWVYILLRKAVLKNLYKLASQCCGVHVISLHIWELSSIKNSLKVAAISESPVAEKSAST
Excerpt: as §1

The next test deals with T4, hDP (Homo sapiens, UniProt Q13258).
T4 sequence (Q13258 1-359): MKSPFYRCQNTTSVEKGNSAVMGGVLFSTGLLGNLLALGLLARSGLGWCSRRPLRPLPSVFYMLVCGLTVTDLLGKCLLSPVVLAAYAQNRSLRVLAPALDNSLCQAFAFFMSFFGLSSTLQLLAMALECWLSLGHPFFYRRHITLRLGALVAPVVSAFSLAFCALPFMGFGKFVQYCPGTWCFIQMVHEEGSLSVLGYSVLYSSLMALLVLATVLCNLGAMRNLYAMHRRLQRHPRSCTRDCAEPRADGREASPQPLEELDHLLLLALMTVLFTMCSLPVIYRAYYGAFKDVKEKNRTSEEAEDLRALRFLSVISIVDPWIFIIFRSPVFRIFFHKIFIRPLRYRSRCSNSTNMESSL
Put plainly: Other receptors: hDP EC50. The test is classed as cell-based.
Excerpt: as §1

A further test deals with T5, hEP1 (Homo sapiens, UniProt P34995).
T5 sequence (P34995 1-402): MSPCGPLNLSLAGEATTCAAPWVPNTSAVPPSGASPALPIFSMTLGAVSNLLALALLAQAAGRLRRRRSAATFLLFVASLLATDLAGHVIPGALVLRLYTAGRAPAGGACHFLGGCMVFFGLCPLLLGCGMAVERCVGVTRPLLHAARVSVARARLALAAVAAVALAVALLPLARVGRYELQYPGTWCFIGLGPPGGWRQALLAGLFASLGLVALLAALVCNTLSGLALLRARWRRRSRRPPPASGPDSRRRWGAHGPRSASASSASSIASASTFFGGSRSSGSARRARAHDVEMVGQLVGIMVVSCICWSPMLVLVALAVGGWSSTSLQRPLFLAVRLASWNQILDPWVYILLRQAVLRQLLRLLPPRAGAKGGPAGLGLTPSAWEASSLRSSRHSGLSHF
Put plainly: Other receptors: hEP1 EC50. Type of test: cell-based.
Excerpt: as §1

For a further test, the target named is T6, hTP (Homo sapiens, UniProt P21731).
T6 sequence (P21731 1-343): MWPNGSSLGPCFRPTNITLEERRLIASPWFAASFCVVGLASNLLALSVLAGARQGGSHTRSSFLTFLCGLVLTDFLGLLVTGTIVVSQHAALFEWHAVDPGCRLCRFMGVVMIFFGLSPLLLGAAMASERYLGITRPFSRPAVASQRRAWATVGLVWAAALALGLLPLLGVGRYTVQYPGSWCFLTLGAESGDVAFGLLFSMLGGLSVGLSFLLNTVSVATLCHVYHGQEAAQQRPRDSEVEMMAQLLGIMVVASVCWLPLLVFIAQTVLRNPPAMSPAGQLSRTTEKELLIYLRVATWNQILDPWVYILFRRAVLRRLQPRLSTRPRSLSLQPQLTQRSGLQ
Put plainly: Other receptors: hTP EC50. Type of test: cell-based.
Excerpt: as §1

For test [4], the target named is T3, EP2. Briefly: EP2 Ki (binding).
Excerpt: as §1

A further test deals with hIP (Homo sapiens, UniProt P43119). Briefly: Other receptors: hIP EC50. Type of test: cell-based.
hIP, sequence (P43119 whole entry): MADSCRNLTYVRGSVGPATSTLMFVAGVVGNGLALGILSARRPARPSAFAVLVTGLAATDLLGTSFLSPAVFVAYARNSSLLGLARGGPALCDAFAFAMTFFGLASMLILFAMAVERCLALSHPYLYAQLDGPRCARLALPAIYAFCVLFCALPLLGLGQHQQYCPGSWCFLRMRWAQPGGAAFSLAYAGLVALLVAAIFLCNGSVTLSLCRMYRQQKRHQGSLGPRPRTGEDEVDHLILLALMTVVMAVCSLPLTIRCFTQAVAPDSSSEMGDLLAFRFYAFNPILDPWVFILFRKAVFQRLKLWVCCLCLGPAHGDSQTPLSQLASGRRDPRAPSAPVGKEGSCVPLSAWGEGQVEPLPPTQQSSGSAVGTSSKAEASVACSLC
Excerpt: as §1

For test [5], the target named is T3, EP2. Put plainly: EP2 cAMP. The test is classed as cell-based.
Excerpt: as §1

Here are results for ten compounds from patent publication US8592413B2, “Therapeutic substituted cyclopentanes” (Allergan, Inc., priority 2008, dated 2013).

pEC50, pKi: −log10 of the molar value.

T1 sequence (P35408 whole entry): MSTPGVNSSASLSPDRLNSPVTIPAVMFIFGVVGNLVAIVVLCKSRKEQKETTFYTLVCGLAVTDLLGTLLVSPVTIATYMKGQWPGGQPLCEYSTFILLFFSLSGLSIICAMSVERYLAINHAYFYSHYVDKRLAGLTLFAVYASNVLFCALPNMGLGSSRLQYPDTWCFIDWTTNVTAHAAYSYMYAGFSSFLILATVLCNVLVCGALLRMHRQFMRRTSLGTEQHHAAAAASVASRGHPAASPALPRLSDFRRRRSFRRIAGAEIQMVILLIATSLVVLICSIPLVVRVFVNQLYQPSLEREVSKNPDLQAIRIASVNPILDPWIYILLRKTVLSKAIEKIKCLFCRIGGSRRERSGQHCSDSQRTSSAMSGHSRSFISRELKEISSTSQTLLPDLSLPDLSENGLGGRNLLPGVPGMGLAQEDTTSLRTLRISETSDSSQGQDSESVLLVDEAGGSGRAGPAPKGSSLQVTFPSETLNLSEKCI

`O=C(O)CCC/C=C\C[C@@H]1[C@@H](COCc2cccc(C(F)(F)F)c2)[C@H](O)C[C@H]1Cl`: the pEC50 – broadly, −log10 of the EC50, conventionally taken in molar units – on EP4 [1] is 5.63; at EP2 [3], 6.71; on EP2 [5], 8.30. The pKi – broadly, the Ki on a negative log10 scale, so that one unit is a factor of ten – on EP4 [2] is 5.50; on EP2 [4] it was 6.67. The EC50 (in general, the concentration that produces a half-maximal response) on hEP3A was 88 nM; at hFP it was 22500 nM; at hDP, greater than 10000 nM; on hEP1, 97 nM; at hTP, 11 nM; at hIP it was 7 nM.
Turning to `CCc1cccc(COC[C@@H]2[C@@H](CCCc3ccc(C(=O)O)s3)[C@H](Cl)C[C@H]2O)c1`, the results for the pEC50 on EP4 [1], on EP2 [3] and at EP2 [5] were 5.18, 6.59 and 9.30, respectively. Moreover, the pKi on EP4 [2] is 6.22; on EP2 [4] it was 8.52. Besides, the EC50 was greater than 10000 nM at hDP and 2520 nM on hTP.
For `O=C(O)c1ccc(CCC[C@@H]2[C@@H](CCCc3cc(Cl)cc(Cl)c3)[C@H](O)C[C@H]2Cl)s1`, the pEC50 on EP4 [1] was 5.00; at EP2 [3], 5.00; on EP2 [5], 9.00. In addition, the pKi on EP4 [2] is 6.00; on EP2 [4], 9.22. The results for the EC50 at hEP3A and on hTP were 8060 nM and 7110 nM, respectively.
On to `CCc1cccc(CCC[C@@H]2[C@@H](CCCc3ccc(C(=O)O)s3)[C@H](Cl)C[C@H]2O)c1`, for which the pEC50 on EP4 [1] is less than 5.00; at EP2 [3], 4.86; on EP2 [5], 9.05. In addition, the negative-log Ki (pKi) was 5.73 at EP4 [2] and 8.40 on EP2 [4].
Consider `O=C(O)c1ccc(CCC[C@@H]2[C@@H](CCCc3cccc(C(F)(F)F)c3)[C@H](O)C[C@H]2Cl)s1`, for which the pKi was 6.13 at EP4 [2] and 9.30 on EP2 [4]. The pEC50 at EP2 [3] is 5.60; at EP2 [5], 9.52. Moreover, the EC50 at hEP1 is 4260 nM.
As to `O=C(O)c1ccc(CCC[C@@H]2[C@@H](C=C=Cc3cccc(C(F)(F)F)c3)[C@H](O)C[C@H]2Cl)s1`, the values for the pEC50 on EP2 [3] and at EP2 [5] were 5.49 and 8.77, respectively. The pKi on EP2 [4] was 7.96.
Take `O=C(O)c1ccc(CCC[C@@H]2[C@@H](CCCc3ccccc3)[C@H](O)C[C@H]2Cl)s1`: the results for the pEC50 at EP4 [1] and on EP2 [5] were 5.30 and 9.22, respectively. Besides, the pKi on EP4 [2] is 5.67; at EP2 [4], 8.52. Further, the midpoint of the response on hDP, the EC50, lay at 6780 nM.
On the same counts, the results for `O=C(O)c1ccc(CCC[C@@H]2[C@@H](C=C=Cc3ccccc3)[C@H](O)C[C@H]2Cl)s1` are 4.96, 8.77, 6.15, 8.22 and 10200 nM.
For the compound `CN(Cc1ccccc1)C[C@@H]1[C@@H](CCCc2ccc(C(=O)O)s2)[C@H](Cl)C[C@H]1O`, at hDP, the EC50 amounted to 5620 nM. Moreover, on EP2 [4], the pKi is 7.62. The pEC50 on EP2 [5] was 8.44.
For the compound `O=C(O)c1ccc(CCC[C@@H]2[C@@H](CNCc3ccccc3)[C@H](O)C[C@H]2Cl)s1`, the pKi at EP2 [4] is 6.84. Besides, on EP2 [5], the negative-log EC50 (pEC50) is 8.22.
